Data: paper PMC2851739 (General and comparative endocrinology, 2009)
Ends that are not written are not given here.

Tested on: AeaETHRs
Test: flash luminescence
Format: cell-based, Aedes aegypti
Settings: peptides with related sequences

Substance	activity when tested at 10 μM
corazonin (QTFQYSRGWTN; ends and bridges not checked; UniProt Q26377 20-30, looked up)	inactive
FMRFamide	inactive
ghrelin (GSSFLSPEHQRVQQRKESKKPPAKLQPR; ends and bridges not checked; UniProt Q9UBU3 24-51, looked up)	inactive
